Laboratory results as given in ChEMBL document CHEMBL1141956, “New heterocyclic analogues of 4-(2-chloro-5-methoxyanilino)quinazolines as potent and selective c-Src kinase inhibitors” (Bioorg Med Chem Lett, 2005).
≈ marks a conversion by molar mass, not a printed value.

Legend:
[1] = biological target: Proto-oncogene tyrosine-protein kinase Src (Homo sapiens, UniProt P12931); experiment: Inhibitory activity against c-Src kinase
[2] = test system: A549; experiment: Inhibition of A549 cell migration; format: functional, cell-based; details: Homo sapiens
[3] = biological target: Vascular endothelial growth factor receptor 2 (Homo sapiens, UniProt P35968); experiment: Inhibitory activity against KDR
Vascular endothelial growth factor receptor 2, sequence (P35968 whole entry): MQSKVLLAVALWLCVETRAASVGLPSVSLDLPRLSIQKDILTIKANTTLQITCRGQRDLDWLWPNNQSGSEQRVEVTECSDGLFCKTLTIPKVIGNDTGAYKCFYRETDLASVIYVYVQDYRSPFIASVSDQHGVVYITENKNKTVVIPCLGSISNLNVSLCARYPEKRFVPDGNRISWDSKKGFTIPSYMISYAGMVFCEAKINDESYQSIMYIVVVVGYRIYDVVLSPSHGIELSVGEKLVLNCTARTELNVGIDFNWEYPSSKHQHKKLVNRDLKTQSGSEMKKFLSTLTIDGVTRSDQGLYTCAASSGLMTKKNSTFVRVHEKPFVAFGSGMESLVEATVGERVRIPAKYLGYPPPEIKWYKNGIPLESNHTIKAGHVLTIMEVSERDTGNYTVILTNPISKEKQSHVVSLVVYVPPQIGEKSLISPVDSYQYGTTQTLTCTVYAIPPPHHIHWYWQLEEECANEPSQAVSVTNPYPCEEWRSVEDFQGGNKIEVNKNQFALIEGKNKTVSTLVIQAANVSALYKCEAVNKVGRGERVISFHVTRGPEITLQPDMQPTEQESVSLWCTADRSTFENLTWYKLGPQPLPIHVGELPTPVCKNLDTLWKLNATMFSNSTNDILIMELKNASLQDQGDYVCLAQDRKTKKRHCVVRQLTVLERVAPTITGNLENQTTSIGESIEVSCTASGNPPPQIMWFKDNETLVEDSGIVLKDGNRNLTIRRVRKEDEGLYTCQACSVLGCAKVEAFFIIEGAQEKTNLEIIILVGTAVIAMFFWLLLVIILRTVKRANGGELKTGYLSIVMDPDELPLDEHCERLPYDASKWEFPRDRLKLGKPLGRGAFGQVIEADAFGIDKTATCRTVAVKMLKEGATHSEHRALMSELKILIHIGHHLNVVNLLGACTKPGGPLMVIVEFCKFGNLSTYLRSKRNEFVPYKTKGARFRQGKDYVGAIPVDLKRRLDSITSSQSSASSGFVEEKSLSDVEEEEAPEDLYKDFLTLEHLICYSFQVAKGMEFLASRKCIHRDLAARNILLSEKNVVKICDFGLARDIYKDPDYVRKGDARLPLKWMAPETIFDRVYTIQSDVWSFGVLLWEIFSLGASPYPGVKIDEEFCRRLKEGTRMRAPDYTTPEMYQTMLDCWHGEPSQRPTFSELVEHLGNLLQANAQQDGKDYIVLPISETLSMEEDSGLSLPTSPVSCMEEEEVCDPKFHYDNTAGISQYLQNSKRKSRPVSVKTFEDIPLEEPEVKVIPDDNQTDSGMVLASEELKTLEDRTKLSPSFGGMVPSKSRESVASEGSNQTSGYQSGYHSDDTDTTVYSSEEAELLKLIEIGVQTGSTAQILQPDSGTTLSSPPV

[4] = Cmax in rat administered with 2 mg/kg, po; format: ADME, organism-based; parameters: dose 2 mg/kg, route oral; details: in vivo
[5] = test system: Rattus norvegicus; experiment: AUC(0-6 h) in rat administered with 2 mg/kg, po; format: ADME, organism-based, Plasma; parameters: time < 6 hr, dose 2 mg/kg, route oral; details: in vivo
[6] = Percent of unbound ligand in rat plasma; format: ADME, organism-based
[7] = Solubility in phosphate buffer at pH 7.4; format: physicochemical

Proto-oncogene tyrosine-protein kinase Src, sequence (P12931 2-536 limits assumed): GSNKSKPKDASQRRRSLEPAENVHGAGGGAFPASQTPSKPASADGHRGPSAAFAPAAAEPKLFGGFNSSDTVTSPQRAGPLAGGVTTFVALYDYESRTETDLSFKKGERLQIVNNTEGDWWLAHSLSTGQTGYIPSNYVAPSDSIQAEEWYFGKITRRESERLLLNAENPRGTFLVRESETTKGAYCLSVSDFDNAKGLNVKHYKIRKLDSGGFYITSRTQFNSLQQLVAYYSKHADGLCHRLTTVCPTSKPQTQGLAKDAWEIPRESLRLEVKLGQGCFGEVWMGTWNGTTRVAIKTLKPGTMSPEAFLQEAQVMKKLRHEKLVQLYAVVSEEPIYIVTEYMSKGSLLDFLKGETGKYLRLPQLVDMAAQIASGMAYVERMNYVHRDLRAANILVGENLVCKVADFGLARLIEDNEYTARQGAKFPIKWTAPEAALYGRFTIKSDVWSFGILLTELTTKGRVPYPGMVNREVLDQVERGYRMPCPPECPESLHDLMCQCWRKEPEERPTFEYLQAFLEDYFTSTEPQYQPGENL

COc1ccc(Cl)c(Nc2ncnc3cc(OCCCN4CCOCC4)cc(OC(C)C)c23)n1
IC50 [1]: < 4 nM
IC50 [2]: 90 nM
IC50 [3]: 1900 nM

COc1cc(Nc2ncnc3cc(OCCCN4CCOCC4)cc(OC4CCOCC4)c23)c(Cl)cn1
IC50 [1]: 400 nM
IC50 [3]: 80 nM

COc1ccc(Cl)c(Nc2ncnc3cc(OCCCN4CCOCC4)cc(OC4CCOCC4)c23)c1
IC50 [1]: 10 nM
IC50 [3]: 400 nM

COc1ccc(Cl)c(Nc2ncnc3cc(OCCCN4CCN(C(C)=O)CC4)cc(OC(C)C)c23)n1
IC50 [1]: < 4 nM
IC50 [2]: 90 nM
IC50 [3]: 2700 nM

COc1ccc(Cl)c(Nc2ncnc3cc(OCCN4CCOCC4)cc(OC(C)C)c23)n1
IC50 [1]: 20 nM
IC50 [2]: 130 nM
IC50 [3]: 2900 nM

COc1ccc(Cl)c(Nc2ncnc3cc(OCCN4CCN(C)CC4)cc(OC(C)C)c23)n1
IC50 [1]: 7 nM
IC50 [2]: 170 nM
IC50 [3]: 570 nM

COc1cnc(Cl)c(Nc2ncnc3cc(OCCCN4CCOCC4)cc(OC4CCOCC4)c23)c1
IC50 [1]: 7 nM
IC50 [2]: 290 nM
IC50 [3]: 30 nM

COc1cnc(Cl)c(Nc2ncnc3cc(OCCN4CCN(C(C)=O)CC4)cc(OC(C)C)c23)n1
IC50 [1]: 8 nM
Cmax [4]: 420 nM
IC50 [2]: 140 nM
IC50 [3]: 2800 nM
AUC [5]: 0.61 uMh

COc1ccc(Cl)c(Nc2ncnc3cc(OCCCN4CCOCC4)cc(OC4CCOCC4)c23)n1
IC50 [1]: 5 nM
IC50 [2]: 160 nM
IC50 [3]: 5500 nM

COc1ccc(Cl)c(Nc2ncnc3cc(OCCN4CCCC4)cc(OC(C)C)c23)n1
IC50 [1]: 15 nM
IC50 [2]: 80 nM
IC50 [3]: 3600 nM

COc1ccc(Cl)c(Nc2ncnc3cc(OCCCN4CCN(C)CC4)cc(OC(C)C)c23)n1
IC50 [1]: < 4 nM
IC50 [2]: 90 nM
IC50 [3]: 680 nM

COc1ccc(Cl)c(Nc2ncnc3cc(OCCCN4CCOCC4)cc(OC(C)C)c23)c1
IC50 [1]: 40 nM
IC50 [3]: 30 nM

COc1ccc(Cl)c(Nc2ncnc3cc(OCCN4CCN(C(C)=O)CC4)cc(OC(C)C)c23)n1
IC50 [1]: 10 nM
fraction unbound [6]: 0.08
Cmax [4]: 310 nM
IC50 [2]: 90 nM
IC50 [3]: 6300 nM
AUC [5]: 0.64 uMh
solubility [7]: 43 µM (≈ 22.1 µg/mL)

COc1cnc(Cl)c(Nc2ncnc3cc(OCCCN4CCOCC4)cc(OC(C)C)c23)c1
IC50 [1]: 5 nM
IC50 [3]: 30 nM

COc1ccc(Cl)c(Nc2ncnc3cc(OCCCN4CCCC4)cc(OC(C)C)c23)n1
IC50 [1]: 6 nM
IC50 [2]: 140 nM
IC50 [3]: 900 nM

COc1ncc(Cl)c(Nc2ncnc3cc(OCCN4CCN(C(C)=O)CC4)cc(OC(C)C)c23)n1
IC50 [1]: 15 nM
IC50 [2]: 270 nM
IC50 [3]: 15000 nM

COc1cc(Nc2ncnc3cc(OCCCN4CCOCC4)cc(OC(C)C)c23)c(Cl)cn1
IC50 [1]: 35 nM
IC50 [3]: < 2 nM
